# Data published in ChEMBL document CHEMBL1201862, “PubChem BioAssay data set” (2004).
#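 All cell lines were grown in 96-well plates and treated with compound for 48 hours. Abbreviation: GI50, concentration required for 50% inhibition of growth.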 The source made the active and inactive calls. Cut-off read from the data, not from the text of the source: active = GI50 up to about 1.1 µM and inactive = higher.
# How the values were obtained:
# Test in all cases: DTP human tumour cell line panel, 48 h
# CAKI-1 = tested on: CAKI-1
# SK-MEL-5 = tested on: SK-MEL-5
# HCT-15 = tested on: HCT-15
# MCF7 = tested on: MCF7
# TK-10 = tested on: TK-10
# OVCAR-4 = tested on: OVCAR-4
# NCI-H522 = tested on: NCI-H522
# RXF 393 = tested on: RXF 393
# SF-268 = tested on: SF-268
# Malme-3M = tested on: Malme-3M
# NCI-H23 = tested on: NCI-H23
# MDA-N = tested on: MDA-N
# RPMI-8226 = tested on: RPMI-8226
# KM12 = tested on: KM12
# U-251 = tested on: U-251
# HCC 2998 = tested on: HCC 2998
# SK-OV-3 = tested on: SK-OV-3
# UACC-62 = tested on: UACC-62
# A549 = tested on: A549
# UO-31 = tested on: UO-31
SMILES,GI50 (CAKI-1),GI50 (SK-MEL-5),GI50 (HCT-15) [µM],GI50 (MCF7),GI50 (TK-10),GI50 (OVCAR-4),GI50 (NCI-H522),GI50 (RXF 393),GI50 (SF-268),GI50 (Malme-3M),GI50 (NCI-H23),GI50 (MDA-N),GI50 (RPMI-8226),GI50 (KM12),GI50 (U-251),GI50 (HCC 2998),GI50 (SK-OV-3),GI50 (UACC-62),GI50 (A549),GI50 (UO-31)
OC(CC(CC(O)(C(F)(F)Cl)C(F)(F)Cl)=NNc1ccccc1)(C(F)(F)Cl)C(F)(F)Cl,2.9 µM (inactive),1.71 µM (inactive),3.23,2.94 µM (inactive),3.88 µM (inactive),3.33 µM (inactive),4.4 µM (inactive),2.8 µM (inactive),2.55 µM (inactive),3.7 µM (inactive),2.41 µM (inactive),2.87 µM (inactive),> 10 µM (inactive),3.12 µM (inactive),3.3 µM (inactive),4.23 µM (inactive),4.04 µM (inactive),1.66 µM (inactive),3.41 µM (inactive),
COc1cccc(NC(=O)C(C#N)=C(SC)SC)c1,95.1 µM (inactive),41.8 µM (inactive),> 100,72.9 µM (inactive),> 100 µM (inactive),> 100 µM (inactive),30.4 µM (inactive),> 100 µM (inactive),> 100 µM (inactive),> 100 µM (inactive),,> 100 µM (inactive),,> 100 µM (inactive),> 100 µM (inactive),> 100 µM (inactive),> 100 µM (inactive),> 100 µM (inactive),> 100 µM (inactive),
C/C(=N\NC(N)=S)c1nc2cccnc2[nH]1,33.5 µM (inactive),47.3 µM (inactive),53.6,26.8 µM (inactive),> 80.4 µM (inactive),25.6 µM (inactive),> 68.5 µM (inactive),> 100 µM (inactive),57.7 µM (inactive),> 92.9 µM (inactive),,> 100 µM (inactive),> 96.6 µM (inactive),67.5 µM (inactive),40.8 µM (inactive),> 66.1 µM (inactive),30.2 µM (inactive),47.2 µM (inactive),57.5 µM (inactive),24.9 µM (inactive)
CC(CCC(=O)O)[C@H]1CCC2[C@H]3C(CC(=O)[C@@]21C)[C@@]1(C)CCC(O)C[C@H]1C[C@@H]3O (some centres not stated),> 100 µM (inactive),,> 100,> 100 µM (inactive),,> 100 µM (inactive),> 100 µM (inactive),> 100 µM (inactive),> 100 µM (inactive),> 100 µM (inactive),> 100 µM (inactive),> 100 µM (inactive),> 100 µM (inactive),> 100 µM (inactive),> 100 µM (inactive),> 100 µM (inactive),,> 100 µM (inactive),> 100 µM (inactive),> 100 µM (inactive)
COCN1C(=O)[C@@H]2CCCN2C(=O)c2ccc(Cl)cc21,> 100 µM (inactive),,> 100,> 100 µM (inactive),> 100 µM (inactive),> 100 µM (inactive),> 100 µM (inactive),> 100 µM (inactive),> 100 µM (inactive),> 100 µM (inactive),> 100 µM (inactive),> 100 µM (inactive),> 100 µM (inactive),> 100 µM (inactive),> 100 µM (inactive),> 100 µM (inactive),> 100 µM (inactive),> 100 µM (inactive),> 100 µM (inactive),> 100 µM (inactive)
Cc1c(/N=N/c2ccccc2)c(-c2ccccc2)n(C2OC(CO)C(O)C(O)C2O)c(=S)c1C#N (configuration not stated),,2.33 µM (inactive),5.01,4.74 µM (inactive),9.29 µM (inactive),6.1 µM (inactive),3.5 µM (inactive),2.5 µM (inactive),8.38 µM (inactive),6.67 µM (inactive),3.36 µM (inactive),4.71 µM (inactive),4.06 µM (inactive),2.98 µM (inactive),4.08 µM (inactive),5.3 µM (inactive),11.1 µM (inactive),3.6 µM (inactive),5.83 µM (inactive),7.74 µM (inactive)
CCCCCCCCCCCCCCCC1(OC)C[N+](C)(C)CCO1 (configuration not stated),1.4 µM (inactive),1.9 µM (inactive),6.01,0.221 µM (active),2.45 µM (inactive),1.02 µM (active),1.65 µM (inactive),0.778 µM (active),2.08 µM (inactive),2.18 µM (inactive),1.3 µM (inactive),2.05 µM (inactive),,0.586 µM (active),1.6 µM (inactive),2.54 µM (inactive),4.89 µM (inactive),2.76 µM (inactive),1.7 µM (inactive),
O=C(CCc1ccc(O)cc1)NCCCNC(=O)CCc1ccc(O)cc1,> 100 µM (inactive),> 100 µM (inactive),> 100,> 100 µM (inactive),,> 100 µM (inactive),> 100 µM (inactive),> 100 µM (inactive),> 100 µM (inactive),> 100 µM (inactive),> 100 µM (inactive),> 100 µM (inactive),> 100 µM (inactive),> 100 µM (inactive),> 100 µM (inactive),> 100 µM (inactive),> 100 µM (inactive),> 100 µM (inactive),> 100 µM (inactive),> 100 µM (inactive)
